Patent US6355799B1, “Substituted benzene compounds, process for their preparation, and herbicidal and defoliant compositions containing them” (ISK Americas Incorporated, priority 1997, dated 2002)

Assays:
Type in all cases: in vivo
[1] = system: lambsquarters (Chenopodium album, CHEAL); test: Pre-emerge test, greenhouse herbicide activity screening; details: pre-emerge, rated 14 days after application, 0 = no damage, 100 = complete death
In short: (§1)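 Fourteen days after spraying, crop and weed injury was graded visually from 0, no effect, to 100, every plant dead. Test substances were dissolved in acetone and applied at 15–1000 g ai/ha with a flat-fan nozzle. Application was either pre-emergence, one day after sowing, or post-emergence at the 2–3 leaf stage.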

[2] = system: green foxtail (Setaria viridis, SETVI); test: as above; details: pre-emerge, rated 14 days after application, 0 = no damage, 100 = complete death
In short: as §1

[3] = system: johnsongrass (Sorghum halepense, SORHA); test: as above; details: pre-emerge, rated 14 days after application, 0 = no damage, 100 = complete death
In short: as §1

[4] = system: velvetleaf (Abutilon theophrasti, ABUTH); test: as above; details: pre-emerge, rated 14 days after application, 0 = no damage, 100 = complete death
In short: as §1

[5] = system: ivyleaf morningglory (Ipomoea hederacea, IPOHE); test: as above; details: pre-emerge, rated 14 days after application, 0 = no damage, 100 = complete death
In short: as §1

[6] = system: large crabgrass (Digitaria sanguinalis, DIGSA); test: as above; details: pre-emerge, rated 14 days after application, 0 = no damage, 100 = complete death
In short: as §1

[7] = system: sicklepod (Cassia obtusifolia, CASOB); test: as above; details: pre-emerge, rated 14 days after application, 0 = no damage, 100 = complete death
In short: as §1

[8] = system: barnyardgrass (Echinochloa crus-galli, ECHCG); test: as above; details: pre-emerge, rated 14 days after application, 0 = no damage, 100 = complete death
In short: as §1

[9] = system: upland rice (Oryza sp., var. Tebonnet, RICE); test: Pre-emerge test, crop safety; details: pre-emerge, rated 14 days after application, 0 = no damage, 100 = complete death
In short: (§2)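 Compounds in acetone were track-sprayed at 15-1000 g ai/ha (187 l/ha) on sandy loam pots: pre-emerge one day after seeding, post-emerge at 2-3 leaf stage with 0.25% v/v non-ionic surfactant. Phytotoxicity was rated 14 days later on a 0 (no damage) to 100 (complete death) scale.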

[10] = system: field corn (Zea mays L., var. Dekalb 535, CORN); test: Pre-emerge test, crop safety; details: pre-emerge, rated 14 days after application, 0 = no damage, 100 = complete death
In short: as §2

[11] = system: redroot pigweed (Amaranthus retroflexus, AMARE); test: Pre-emerge test, greenhouse herbicide activity screening; details: pre-emerge, rated 14 days after application, 0 = no damage, 100 = complete death
In short: as §2

[12] = system: upland rice (Oryza sp., var. Tebonnet, RICE); test: Post-emerge test, crop safety; details: phytotoxicity rating 0-100 (0 no damage, 100 complete death), 14 days after application
In short: as §1

[13] = system: field corn (Zea mays L., var. Dekalb 535, CORN); test: Post-emerge test, crop safety; details: phytotoxicity rating 0-100 (0 no damage, 100 complete death), 14 days after application
In short: as §1

[14] = system: lambsquarters (Chenopodium album, CHEAL); test: Post-emerge test, greenhouse herbicide activity screening; details: phytotoxicity rating 0-100 (0 no damage, 100 complete death), 14 days after application
In short: as §1

[15] = system: green foxtail (Setaria viridis, SETVI); test: as above; details: phytotoxicity rating 0-100 (0 no damage, 100 complete death), 14 days after application
In short: as §1

[16] = system: johnsongrass (Sorghum halepense, SORHA); test: as above; details: phytotoxicity rating 0-100 (0 no damage, 100 complete death), 14 days after application
In short: as §1

[17] = system: velvetleaf (Abutilon theophrasti, ABUTH); test: as above; details: phytotoxicity rating 0-100 (0 no damage, 100 complete death), 14 days after application
In short: as §1

[18] = system: ivyleaf morningglory (Ipomoea hederacea, IPOHE); test: as above; details: phytotoxicity rating 0-100 (0 no damage, 100 complete death), 14 days after application
In short: as §1

[19] = system: common ragweed (Ambrosia artemisizfolia L., AMBEL); test: as above; details: phytotoxicity rating 0-100 (0 no damage, 100 complete death), 14 days after application
In short: as §1

[20] = system: redroot pigweed (Amaranthus retroflexus, AMARE); test: as above; details: phytotoxicity rating 0-100 (0 no damage, 100 complete death), 14 days after application
In short: as §1

[21] = system: large crabgrass (Digitaria sanguinalis, DIGSA); test: as above; details: phytotoxicity rating 0-100 (0 no damage, 100 complete death), 14 days after application
In short: as §1

[22] = system: sicklepod (Cassia obtusifolia, CASOB); test: as above; details: phytotoxicity rating 0-100 (0 no damage, 100 complete death), 14 days after application
In short: as §1

[23] = system: barnyardgrass (Echinochloa crus-galli, ECHCG); test: as above; details: phytotoxicity rating 0-100 (0 no damage, 100 complete death), 14 days after application
In short: as §1

SMILES: COc1c(Cl)cc(F)c(-n2c(=O)cc(C(F)(F)F)n(C)c2=O)c1N=CN(C)C [Compound 1-31, 3-[4-chloro-2-(dimethylaminomethynyl)imino-6-fluoro-3-methoxyphenyl]-1-methyl-6-trifluoromethyl-2,4(1H, 3H)-pyrimidinedione]
- Pre-emerge Herbicidal Activity CHEAL (phytotoxicity rating, scale 0-100) ([1]; 63 g ai/ha): 95
- Pre-emerge Herbicidal Activity CHEAL (phytotoxicity rating, scale 0-100) ([1]; 250 g ai/ha): 100
- Pre-emerge Herbicidal Activity SETVI (phytotoxicity rating, scale 0-100) ([2]; 63 g ai/ha): 50
- Pre-emerge Herbicidal Activity SETVI (phytotoxicity rating, scale 0-100) ([2]; 250 g ai/ha): 100
- Pre-emerge Herbicidal Activity SORHA (phytotoxicity rating, scale 0-100) ([3]; 63 g ai/ha): 0
- Pre-emerge Herbicidal Activity SORHA (phytotoxicity rating, scale 0-100) ([3]; 250 g ai/ha): 90
- Pre-emerge Herbicidal Activity ABUTH (phytotoxicity rating, scale 0-100) ([4]; 63 g ai/ha): 100
- Pre-emerge Herbicidal Activity ABUTH (phytotoxicity rating, scale 0-100) ([4]; 250 g ai/ha): 100
- Pre-emerge Herbicidal Activity IPOHE (phytotoxicity rating, scale 0-100) ([5]; 63 g ai/ha): 0
- Pre-emerge Herbicidal Activity IPOHE (phytotoxicity rating, scale 0-100) ([5]; 250 g ai/ha): 80
- Pre-emerge Herbicidal Activity DIGSA (phytotoxicity rating, scale 0-100) ([6]; 63 g ai/ha): 0
- Pre-emerge Herbicidal Activity DIGSA (phytotoxicity rating, scale 0-100) ([6]; 250 g ai/ha): 90
- Pre-emerge Herbicidal Activity CASOB (phytotoxicity rating, scale 0-100) ([7]; 63 g ai/ha): 70
- Pre-emerge Herbicidal Activity CASOB (phytotoxicity rating, scale 0-100) ([7]; 250 g ai/ha): 95
- Pre-emerge Herbicidal Activity ECHCG (phytotoxicity rating, scale 0-100) ([8]; 63 g ai/ha): 0
- Pre-emerge Herbicidal Activity ECHCG (phytotoxicity rating, scale 0-100) ([8]; 250 g ai/ha): 40
- Pre-emerge crop damage RICE (phytotoxicity rating, scale 0-100) ([9]; 63 g ai/ha): 0
- Pre-emerge crop damage RICE (phytotoxicity rating, scale 0-100) ([9]; 250 g ai/ha): 10
- Pre-emerge crop damage CORN (phytotoxicity rating, scale 0-100) ([10]; 63 g ai/ha): 0
- Pre-emerge crop damage CORN (phytotoxicity rating, scale 0-100) ([10]; 250 g ai/ha): 50
- Pre-emerge Herbicidal Activity AMARE (phytotoxicity rating, scale 0-100) ([11]; 63 g ai/ha): 80
- Pre-emerge Herbicidal Activity AMARE (phytotoxicity rating, scale 0-100) ([11]; 250 g ai/ha): 100
- Post-emerge Herbicidal Activity RICE (crop damage) ([12]; 63 g ai/ha): 0
- Post-emerge Herbicidal Activity RICE (crop damage) ([12]; 250 g ai/ha): 10
- Post-emerge Herbicidal Activity CORN (crop damage) ([13]; 63 g ai/ha): 0
- Post-emerge Herbicidal Activity CORN (crop damage) ([13]; 250 g ai/ha): 0
- Post-emerge Herbicidal Activity CHEAL ([14]; 63 g ai/ha): 0
- Post-emerge Herbicidal Activity CHEAL ([14]; 250 g ai/ha): 40
- Post-emerge Herbicidal Activity SETVI ([15]; 63 g ai/ha): 0
- Post-emerge Herbicidal Activity SETVI ([15]; 250 g ai/ha): 0
- Post-emerge Herbicidal Activity SORHA ([16]; 63 g ai/ha): 0
- Post-emerge Herbicidal Activity SORHA ([16]; 250 g ai/ha): 0
- Post-emerge Herbicidal Activity ABUTH ([17]; 63 g ai/ha): 20
- Post-emerge Herbicidal Activity ABUTH ([17]; 250 g ai/ha): 50
- Post-emerge Herbicidal Activity IPOHE ([18]; 63 g ai/ha): 10
- Post-emerge Herbicidal Activity IPOHE ([18]; 250 g ai/ha): 50
- Post-emerge Herbicidal Activity AMBEL ([19]; 63 g ai/ha): 0
- Post-emerge Herbicidal Activity AMBEL ([19]; 250 g ai/ha): 0
- Post-emerge Herbicidal Activity AMARE ([20]; 63 g ai/ha): 10
- Post-emerge Herbicidal Activity AMARE ([20]; 250 g ai/ha): 30
- Post-emerge Herbicidal Activity DIGSA ([21]; 63 g ai/ha): 0
- Post-emerge Herbicidal Activity DIGSA ([21]; 250 g ai/ha): 0
- Post-emerge Herbicidal Activity CASOB ([22]; 63 g ai/ha): 0
- Post-emerge Herbicidal Activity CASOB ([22]; 250 g ai/ha): 0
- Post-emerge Herbicidal Activity ECHCG ([23]; 63 g ai/ha): 0
- Post-emerge Herbicidal Activity ECHCG ([23]; 250 g ai/ha): 0
